This is an account of results in ChEMBL document CHEMBL5291721, “A preclinical secondary pharmacology resource illuminates target-adverse drug reaction associations of marketed drugs” (Nat Commun, 2023).
Also: assay procedure not described here.

For the experiment, the target named is T1, Alpha-1A adrenergic receptor (Homo sapiens, UniProt P35348).
T1 sequence (P35348 whole entry): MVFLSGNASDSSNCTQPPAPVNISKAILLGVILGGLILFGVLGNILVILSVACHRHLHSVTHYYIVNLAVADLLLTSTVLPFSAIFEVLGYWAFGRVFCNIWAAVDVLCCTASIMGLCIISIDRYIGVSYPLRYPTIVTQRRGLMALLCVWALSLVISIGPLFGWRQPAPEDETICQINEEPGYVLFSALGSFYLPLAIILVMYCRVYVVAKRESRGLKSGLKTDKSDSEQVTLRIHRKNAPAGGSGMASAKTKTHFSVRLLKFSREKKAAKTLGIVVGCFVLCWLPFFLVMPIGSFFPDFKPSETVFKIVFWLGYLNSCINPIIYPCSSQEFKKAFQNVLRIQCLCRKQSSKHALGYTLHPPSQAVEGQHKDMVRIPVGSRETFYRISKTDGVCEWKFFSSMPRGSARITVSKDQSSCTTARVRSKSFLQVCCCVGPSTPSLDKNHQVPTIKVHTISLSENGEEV
The format is functional, cell-based.
Consider `C[C@@H]1C[C@H]2[C@@H]3C[C@H](F)C4=CC(=O)C=C[C@]4(C)[C@H]3[C@@H](O)C[C@]2(C)[C@@]1(O)C(=O)CO` [PARAMETHASONE], for which the AC50 was > 30 µM.
Then `Cc1ncc2c(c1O)COC2c1ccc(Cl)cc1` (centres undefined) [CICLETANINE], with > 30 µM.
Under `CC(=O)[C@]1(N)Cc2c(O)c3c(c(O)c2[C@@H](O[C@H]2C[C@H](O)[C@H](O)CO2)C1)C(=O)c1ccccc1C3=O` [AMRUBICIN] stands > 3 µM.
Then `CC(COc1ccccc1)NC(C)C(O)c1ccc(O)cc1` (centres undefined) [ISOXSUPRINE], with 1.04 µM; and `Cc1ccc(S(=O)(=O)NC(=O)NC2CCCCC2)cc1` [GLYCYCLAMIDE], with > 30 µM; and `N#Cc1ccc(Oc2ccc3c(c2)COB3O)cc1` [CRISABOROLE], with 4.32 µM.
Consider `C[C@H](CCC(=O)O)[C@H]1CC[C@H]2[C@@H]3[C@H](O)C[C@@H]4C[C@H](O)CC[C@]4(C)[C@H]3C[C@H](O)[C@]12C` [CHOLIC ACID], for which the AC50 was > 30 µM.
Turning to `N[C@@H](Cc1ccccc1)C(=O)O` [PHENYLALANINE], the AC50 was > 30 µM.
Under `O=C(CCC/C=C\C[C@@H]1[C@@H](CC[C@@H](O)CCc2ccccc2)[C@H](O)C[C@@H]1O)OCCCCO[N+](=O)[O-]` [LATANOPROSTENE BUNOD] stands > 10 µM; under `COC(=O)C[C@](O)(CCCC(C)(C)O)C(=O)O[C@@H]1C(OC)=C[C@]23CCCN2CCc2cc4c(cc2[C@H]13)OCO4` [OMACETAXINE MEPESUCCINATE], > 30 µM.
Under `NC(=O)[C@@H]1CC[C@@H]2CN1C(=O)N2OS(=O)(=O)O` [AVIBACTAM] stands > 30 µM; under `CC(=O)[C@H]1CC[C@H]2[C@@H]3C=CC4=CC(=O)CC[C@@]4(C)[C@@H]3CC[C@]12C` [DYDROGESTERONE], 29.2 µM; under `Cc1cn([C@H]2O[C@@H](CO)[C@H](O)[C@H]2F)c(=O)[nH]c1=O` [CLEVUDINE], > 30 µM.
Then `Cc1oc(=O)oc1COC(=O)[C@@H]1N2C(=O)[C@@H](NC(=O)[C@H](N)c3ccccc3)[C@H]2SC1(C)C` [LENAMPICILLIN], with 24.5 µM; and `CC(C)(C)NC(=O)N[C@H](C(=O)N1C[C@H]2[C@@H]([C@H]1C(=O)NC(CC1CCC1)C(=O)C(N)=O)C2(C)C)C(C)(C)C` (some centres undefined) [BOCEPREVIR], with > 30 µM.
For the molecule `CCCSc1nc(N[C@@H]2C[C@H]2c2ccc(F)c(F)c2)c2nnn([C@@H]3C[C@H](OCCO)[C@@H](O)[C@H]3O)c2n1` [TICAGRELOR], the AC50 is > 10 µM.
Then `CC[N+](C)(CC)CCOC(=O)C(O)(c1ccccc1)C1CCCCC1` (centres undefined) [OXYPHENONIUM], with > 30 µM.
Under `NNCCc1ccccc1` [PHENELZINE] stands > 1 µM.
Turning to `O=C(O)[C@@H]1C[C@@H](O)CN1`, the AC50 was > 30 µM.
As to `CC(=O)O[C@H]1Cc2ccccc2N(C(N)=O)c2ccccc21` [ESLICARBAZEPINE ACETATE], the AC50 was > 30 µM.
Under `COc1cc(C)c2c(Oc3cccc(C(F)(F)F)c3)c(OC)cc(NC(C)CCCN)c2n1` (centres undefined) [TAFENOQUINE] stands > 3 µM.
As for `CC(=O)OC[C@H]1O[C@@H](n2ncc(=O)[nH]c2=O)[C@H](OC(C)=O)[C@@H]1OC(C)=O` [AZARIBINE], the AC50 is > 30 µM.
Under `CC1(CCN2CCCCC2)C(=O)CCc2ccccc21` (centres undefined) [NEPINALONE] stands > 30 µM.
Consider `C=C1CC[C@H](O)C/C1=C/C=C1\CCC[C@]2(C)[C@@H]([C@H](C)CCCC(C)C)CC[C@@H]12` [CHOLECALCIFEROL], for which the AC50 was > 30 µM.
Under `Cc1ccc(C(=O)C(C)CN2CCCCC2)cc1` (centres undefined) [TOLPERISONE] stands > 30 µM; under `CCC[C@H](N[C@@H](C)C(=O)N1[C@H](C(=O)O)C[C@@H]2CCCC[C@@H]21)C(=O)OCC` [PERINDOPRIL], > 30 µM; under `CC(O)(P(=O)(O)O)P(=O)(O)O` [ETIDRONIC ACID], > 30 µM.
Then `CC1(C)S[C@@H]2[C@H](/N=C/N3CCCCCC3)C(=O)N2[C@H]1C(=O)O` [AMDINOCILLIN], with > 30 µM; and `CN1CCCN(C(c2ccccc2)c2ccc(Cl)cc2)CC1` (centres undefined) [HOMOCHLORCYCLIZINE], with 2.89 µM.

The term AC50 denotes the midpoint of the concentration-response curve, whichever way the signal moves. High values mean activity only at high concentration, low ones activity at low concentration.
